Results: patent publication US8404930B2, “Methods for improving monocot transformation” (Pioneer Hi-Bred International, Inc., priority 2009, dated 2013)
Several values for one entry are separate records, joined by “and”; a condition that tells them apart may be missing. Identical values can stand only once. Like-named read-outs stand apart in the source and are kept apart here.

Experiments:
[1] = test system: Sorghum line TX430 immature embryos; settings: for Transformation frequency (%): dark
Description: (§1) Sorghum line TX430 immature embryos (9-15 DAP when embryo size around 0.8-2.5 mm) were infected with 1×10^9cfu/mL Agrobacterium LBA4404 containing superbinary vector PHPMYFP in PHI-I liquid medium. The embryos were co-cultivated on PHI-T medium plates at 25° C. (ranged 21-25° C.) in dark for 3 days (ranged 1-7 days).
(§2) The whole selection step was in dark at 28° C. After two to three months from the initiation of the experiment, transgenic callus events were cultured for plant regeneration on the same regeneration medium (PHI-RF and PHI-Z) at the regular regeneration conditions.
Transformation frequency was calculated by the number of embryos producing transgenic callus capable of regeneration divided by the number of embryos infected by Agrobacterium

[2] = test system: Sorghum line TX430 immature embryos; settings: for Transformation frequency (%): dark; remark: listed apart in the source
Description: as §1, §2
Transformation frequency was calculated by the number of embryos producing transgenic plants divided by the number of embryos infected by Agrobacterium

[3] = test system: Maize inbred PHR03 immature embryos; test: Transformation frequency of maize using various light intensities (Example 18); assay type: cell-based; settings: 4 μM copper in DBC3 resting and selection media
Description: (§3) Maize inbred PHR03 immature embryos (9-13 DAP when embryo size around 0.8-2.5 mm) were infected with 5×10^8 cfu/mL Agrobacterium LBA4404 containing superbinary vector PHPMRFP in PHI-I liquid medium. The embryos were then co-cultivated on PHI-T co-cultivation media plates at 21° C. in dark conditions for 3 days. This may range from 1-7 days.
(§4) The embryos were subcultured every 2-3 weeks.
A regeneration step was followed by culturing the putative transgenic callus on PHI-RF medium plates for producing shoots and a rooting step on medium plates PHI-RR.
(§5) Transformation frequency was calculated by the number of embryos producing transgenic plants divided by the number of embryos infected by Agrobacterium.

[4] = test system: Maize inbred PHR03 immature embryos; settings: for Transformation frequency (%): dark
Description: as §3, §4
(§6) A regeneration step is followed by culturing the putative transgenic callus on PHI-RF medium plates for producing shoots and a rooting step on medium plates PHI-RR.
Transformation frequency was calculated by the number of embryos producing transgenic callus capable of regenerating plants divided by the number of embryos infected by Agrobacterium.

[5] = test system: Sorghum line TX430 immature embryos
Description: as §1
The whole selection step was in dark or dim light at 28° C. After two to three months from the initiation of the experiment, transgenic callus events were cultured for plant regeneration on the same regeneration medium (PHI-RF and PHI-Z) at the regular regeneration conditions.
as §5

[6] = test system: Maize inbred PHR03 immature embryos; settings: for Transformation frequency (%): dark; remark: listed apart in the source
Description: as §3, §4, §6, §5

[7] = 0.1 μM copper (negative control) in DBC3 resting and selection media, Average of exp 1-4
[8] = 0.1 μM copper (negative control) in DBC3 resting and selection media, single experiments exp 1-4
[9] = 5 μM copper in DBC3 resting and selection media, Average of exp 1-4

Compound: O=S(=O)([O-])[O-].[Cu+2] [copper, cupric sulfate]
- Transformation frequency (%) ([1]; 0.1 μM copper in DBC3 resting and selection media, Average of exp 1-2): 10.0%
- Transformation frequency (%) ([1]; 0.1 μM copper in DBC3 resting and selection media, single experiments exp 1-2): 15.0% and 5.0%
- increase of transformation frequency over 0.1 μM copper ([1]; 1 μM copper and above, sorghum): two times
- Transformation frequency (%) ([1]; 1 μM copper in DBC3 resting and selection media, Average of exp 1-2): 23.8%
- Transformation frequency (%) ([1]; 1 μM copper in DBC3 resting and selection media, single experiments exp 1-2): 30.0% and 17.5%
- Transformation frequency (%) ([1]; 4 μM copper in DBC3 resting and selection media, Average of exp 1-2): 17.1%
- Transformation frequency (%) ([1]; 5 μM copper in DBC3 resting and selection media, Average of exp 1-2): 26.3%
- Transformation frequency (%) ([1]; 5 μM copper in DBC3 resting and selection media, single experiments exp 1-2): 27.5% and 25.0%
- Transformation frequency (%) [2, 7]: 2.0%
- Transformation frequency (%) [2, 8]: 3.33% and 2.50% and 0.00%
- increase of transformation frequency over 0.1 μM copper ([2]; 5 μM copper and above, sorghum): 4-6 times
- Transformation frequency (%) [2, 9]: 13.8%
- Transformation frequency (%) ([2]; 5 μM copper in DBC3 resting and selection media, single experiments exp 1-4): 16.67% and 15.00% and 8.33%
- Transformation frequency (%) ([2]; 10 μM copper in DBC3 resting and selection media, Average): 13.0%
- Transformation frequency (%) ([2]; 10 μM copper in DBC3 resting and selection media, single experiments exp 1-4): 20.00% and 10.00% and 12.50%
- Transformation frequency (%) ([2]; 30 μM copper in DBC3 resting and selection media, Average of exp 1-4): 8.2%
- Transformation frequency (%) ([2]; 50 μM copper in DBC3 resting and selection media, Average of exp 1-4): 9.6%
- Transformation frequency (%) ([2]; 50 μM copper in DBC3 resting and selection media, single experiments exp 1-4): 5.00% and 10.00% and 11.11%
- Transformation frequency (%) ([3]; Dark, single experiments exp 1-4): 10% and 17.5% and 12.5% and 7.5%
- Transformation frequency (%) ([3]; Dim light, Average of exp 1-4): 17.5%
- Transformation frequency (%) ([3]; dark, Average of exp 1-4): 11.9%
- Transformation frequency (%) [4, 7]: 4.4%
- Transformation frequency (%) [4, 8]: 2.5% and 5.0% and 7.5%
- increase of transformation frequency over 0.1 μM copper ([4]; 1 μM copper and above, maize): 3-5 times
- Transformation frequency (%) ([4]; 1 μM copper in DBC3 resting and selection media, Average of exp 1-4): 16.9%
- Transformation frequency (%) ([4]; 1 μM copper in DBC3 resting and selection media, single experiments exp 1-4): 15% and 17.5% and 20%
- Transformation frequency (%) ([4]; 4 μM copper in DBC3 resting and selection media, Average of exp 1-4): 11.9%
- Transformation frequency (%) [4, 9]: 23.1%
- Transformation frequency (%) ([5]; 4 μM copper in DBC3 resting and selection media, Dim light, Average of exp 1-2): 31.3%
- Transformation frequency (%) ([5]; 4 μM copper in DBC3 resting and selection media, dark, Average of exp 1-2): 17.1%
- Transformation frequency (%) ([5]; 5 μM copper in DBC3 resting and selection media, Dim light, Average of exp 1-2): 20.0%
- Transformation frequency (%) ([5]; 5 μM copper in DBC3 resting and selection media, dark, Average of exp 1-2): 26.3%
- Transformation frequency (%) ([5]; 5 μM copper in DBC3 resting and selection media, dark, single experiments exp 1-2): 27.5% and 25.0%
- Transformation frequency (%) ([6]; 0.1 μM copper (negative control) in DBC3 resting and selection media, Average of exp 1-5): 2.9%
- Transformation frequency (%) ([6]; 0.1 μM copper (negative control) in DBC3 resting and selection media, single experiments exp 1-5): 5.0% and 0.0% and 10.0%
- increase of transformation frequency over 0.1 μM copper ([6]; 5 μM copper and above, maize): 4-7 times
- Transformation frequency (%) ([6]; 5 μM copper in DBC3 resting and selection media, Average of exp 1-5): 23.5%
- Transformation frequency (%) ([6]; 10 μM copper in DBC3 resting and selection media, Average of exp 1-5): 19.0%
- Transformation frequency (%) ([6]; 30 μM copper in DBC3 resting and selection media, Average of exp 1-5): 14.0%
- Transformation frequency (%) ([6]; 50 μM copper in DBC3 resting and selection media, Average of exp 1-5): 21.0%
